The structures appear in SMILES notation. Where a name gives a salt, the structure may show the parent alone.

These results are taken from patent US5028625A, “Acid addition salt of ibuprofen and meglumine” (priority 1989, dated 1991).

Data set [1] in a line: Redissolution in water of evaporated salt residue, pH and taste. Type of data set: physicochemical. As for the experimental part: The meglumine salt of ibuprofen was formed by dissolving 10 grams of Ibuprofen, USP, in 330 milliliters of Alcohol, USP to which was added 10 grams of Meglumine, USP. The ibuprofen-meglumine molar ratio was 1:1.0566.
The conditions of data set [2]: in alcohol; cited from earlier work.

As to `CC(C)Cc1ccc(C(C)C(=O)O)cc1` (stereo not drawn) [meglumine ibuprofen salt], in data set [1] (740 milligrams of residue in 7.5 milliliters of water, 200 mg/5ml), the “ibuprofen concentration of clear solution as the meglumine salt” value is “approximately 4 % w/v”. Also, in data set [1] (approximately 4% w/v ibuprofen in water), the “pH of salt solution” value was found to be 8.35.
With `CNC[C@H](O)[C@@H](O)[C@H](O)[C@H](O)CO` [meglumine, Meglumine], the “meglumine alcohol solubility limit” value in data set [2] was 1.2 grams in 100 ml.
